Bridge positions count the residues as written; N and C are the ends. Ends that are not written are not given here.
Columns and labels:
[1] = Peptide self-assembly under fully quiescent conditions (CD, ThT and ANS fluorescence, TEM, AFM); assay type: physicochemical; conditions: 50 μM peptide; for Assemblies observed by TEM after 48 h incubation: negative stain TEM; for ThT fluorescence of incubated peptide, in words: diluted to 25 μM with 40 μM ThT; for Incubation time at which the random coil to β-sheet conformational transition is seen (far-UV CD): microtubes, diluted to 25 μM for CD
Procedure: Solutions were prepared by dissolving the peptide at a concentration of 50 μM in 20 mM Tris-HCl, pH 7.4, and were incubated at room temperature without agitation in 1.5 ml Eppendorf microtubes. For IAPP12-17, the lyophilized peptide was dissolved in 20 mM acetate pH 6.5 in the presence of 3% DMSO, or HFIP, at a final concentration of 500 μM and the peptide solution was incubated at 37 °C under constant rotational agitation.
At the indicating time of incubation, peptide solutions were diluted to 25 μM in presence of 40 μM ThT, or 25 μM 8-anilino-1-naphthalenesulfonic acid (ANS). Fluorescence was measured in 10-mm pathlength microcells using a PTI QuantaMaster spectrofluorometer. For ThT, excitation was set at 440 nm, and the emission spectrum from 450 to 550 nm was recorded. For ANS, the excitation was set at 355 nm, and the emission scan was recorded from 385 to 585 nm.
After incubation, peptide solutions were diluted in water to 25 μM and incorporated into a 2-mm path length quartz cell. For IAPP12-17, the solution was diluted to 150 μM. Far-UV CD spectra were recorded from 190 to 260 nm using a Jasco J-815 CD spectropolarimeter at 25°C. The wavelength step was set at 0.5 nm with an average time of 10 s per scan at each wavelength. Spectra were background-subtracted with buffer solution. Raw data were converted to mean residue ellipticity (MRE): MRE=Mean residue weight (g/mol)X CD signal (deg)/10 X pathlength (cm) X peptide concentration (g/mL)
After incubation, peptide solutions were diluted to 10 μM, or 100 μΜ for IAPP12-17, before being applied on glow-discharged carbon films on 300-mesh copper grids. Samples were adsorbed and negatively stained with 1.5% uranyl formate for 45 s. Images were recorded using a FEI Tecnai G2 Spirit Twin microscope operating at 120 kV and equipped with a Gatan Ultrascan scan 4,000 4k × 4k CCD camera system.
After incubation, peptide solutions were diluted in 1% acetic acid to a concentration of 7.5 μΜ. […] Images were recorded using Veeco/Bruker multimode AFM instrument using ScanAsyst-air mode with a silicon tip (2–12 nm tip radius, 0.4 N/m force) on a nitride lever. Images were taken at 0.977 Hz and 512 scan/min.

INS-1E cells [2] = test: Cell viability by resazurin reduction; assay type: cell-based, Rat; conditions: 24 h, at least five assays; for Cell viability: 50 μM freshly dissolved peptide, relative to vehicle-treated cells; for Cytotoxicity compared with unmodified IAPP, in words: freshly dissolved peptide up to 50 μM
Procedure: (§1) Rat INS-1E cells were cultured in treated black-wall clear-bottom 96-well plates at a density of 25,000 cell/well in RPMI-1640 medium supplemented with 10% FBS, 2 mM L-glutamine, 100 U/ml penicillin, 100 μg/ml streptomycin, 10 mM HEPES, 1 mM sodium pyruvate and 50 μM β-mercaptoethanol. After 48 h of incubation at 37°C in 5% CO2, cells were treated with 50 μL of peptide freshly dissolved in 20 mM Tris-HCl, pH 7.4. […] Cell viability (%) was calculated from the ratio of the fluorescence of the treated cells to the vehicle-treated cells. Data of at least five assays performed with different peptide lots were averaged and expressed as the mean ± S.D. Statistical analysis was performed using Student’s t test, and statistically significant difference was established at (*) p < 0.05; (**) p < 0.005; (***) p < 0.0005. For Live/Dead viability assay, cells were plated in 12-well plates at density of 250,000 cell/well for 48 h before treatment with 25 μM peptide.

[3] = Kinetics of amyloid formation monitored by ThT fluorescence; assay type: physicochemical; conditions: 40 μM ThT, 20 mM Tris-HCl pH 7.4, 25°C, no agitation; for Lag time of amyloid formation: 25 μM peptide, nonbinding surface 96-well plate, read every 10 min, lag time = T50 - 2/k, mean ± S.D. of at least six assays
Procedure: Aggregation mixtures were prepared by dissolving the lyophilized peptide at a concentration of 50 μM in 20 mM Tris-HCl, pH 7.4. Assays were performed at 25°C without stirring in sealed black-wall clear-bottom 96-well nonbinding surface plates with 100 μL/well. Final peptide concentrations were 12.5 and 25 μM, and thioflavin T (ThT) concentration was fixed at 40 μM. Fluorescence was measured every 10 min (excitation: 440 nm, emission: 485 nm) and data from triplicate wells were averaged, corrected by subtracting the blank control, and plotted as ThT fluorescence vs. time. Data were normalized with maximum ThT fluorescence intensity obtained for unmodified IAPP. Data were fitted to a sigmoidal Boltzmann model: Y=Yo+(Ymax−Yo)/1+e^−(T−T50)/ K where T 50 is the time required to reach half of the maximum fluorescence intensity, k is the apparent first-order constant, and Y max and Y 0 are the maximum and initial ThT fluorescence values. Lag time corresponds to T50 - 2/k. Data of at least six assays performed with different peptide lots were averaged and expressed as the mean ± S.D. Statistical analysis was performed using Student’s t test, and statistically significant difference between IAPP and analogs was established at (*) p < 0.05; (**) p < 0.005; (***) p < 0.0005.

[4] = Lipid membrane leakage (calcein-loaded LUVs); conditions: 25 μM peptide, 500 μM phospholipids; for Maximum membrane leakage (calcein fluorescence, % of that with Triton X-100): LUVs DOPC:DOPG 9:1, 20 mM Tris-HCl, 150 mM NaCl, pH 7.4, read every 10 min over 24 h, IAPP value reached after 10 h, at least four assays
Procedure: Large unilamellar vesicles (LUVs) were assembled from 1,2-Dioleoyl-sn-glycero-3-phosphocholine (DOPC) and 2-dioleoyl-sn-glycero-3-phospho-(1′-rac-glycerol) (DOPG) at a 9:1 M ratio (DOPC:DOPG). Lipids were solubilized in 100% chloroform, which was then evaporated. […] The lipid mixture was freeze-thawed five times before being extruded through a 100 nm membrane for 20 cycles. Nonencapsulated calcein was removed by gel filtration using a Sephadex G25 fine resin and 20 mM Tris-HCl, 150 mM NaCl, pH 7.4, as elution buffer. Final lipid concentration was determined by a colorimetric assay ([Babych et al., 2021]). Lyophilized peptides were solubilized in 20 mM Tris-HCl, 150 mM NaCl, pH 7.4, at 50 μM prior to dilution into calcein-LUVs, to reach 25 μM peptide and 500 μM phospholipids. Fluorescence was monitored in sealed black-wall, clear-bottom 96-well non-binding surface plates with 100 μL/well. […] 100% leakage (Fmax) was determined with 0.2% Triton X-100 and LUV leakage was reported using:
Membrane leakage (%) = (F−F baseline)/(F max−F baseline)
Data of at least four assays with different peptide lots were averaged and expressed as the mean ± S.D. Statistical analysis was performed using Student’s t test, and statistically significant difference was established at (*) p < 0.05; (**) p < 0.005; (***) p < 0.0005.

INS-1E cells [5] = test: Live/Dead viability assay (calcein-AM / ethidium homodimer-1, fluorescence microscopy); assay type: cell-based, Rat; conditions: 25 μM freshly solubilized peptide, 24 h, calcein-AM (green, live) and ethidium homodimer-1 (red, dead)
Procedure: as §1

[6] = 20 mM Tris-HCl pH 7.4, quiescent
[7] = 20 mM Tris-HCl pH 7.4, room temperature, fully quiescent

CC[C@H](C)[C@H](NC(=O)[C@H](C)NC(=O)CNC(=O)[C@H](Cc1ccccc1)NC(=O)[C@H](CC(N)=O)NC(=O)[C@H](CC(N)=O)NC(=O)[C@H](CO)NC(=O)[C@H](CO)NC(=O)[C@H](Cc1c[nH]cn1)NC(=O)[C@@H](NC(=O)[C@H](CC(C)C)NC(=O)[C@H](Cc1ccccc1)NC(=O)[C@H](CC(N)=O)NC(=O)[C@H](C)NC(=O)[C@H](CC(C)C)NC(=O)[C@H](CCCNC(=N)N)NC(=O)[C@H](CCC(N)=O)NC(=O)[C@@H](NC(=O)[C@H](C)NC(=O)[C@@H]1CSSC[C@H](NC(=O)[C@@H](N)CCCCN)C(=O)N[C@@H](CC(N)=O)C(=O)N[C@@H]([C@@H](C)O)C(=O)N[C@@H](C)C(=O)N[C@@H]([C@@H](C)O)C(=O)N1)[C@@H](C)O)C(C)C)C(=O)N[C@@H](CC(C)C)C(=O)N[C@@H](CO)C(=O)N[C@@H](CO)C(=O)N[C@H](C(=O)N[C@@H](CC(N)=O)C(=O)N[C@H](C(=O)NCC(=O)N[C@@H](CO)C(=O)N[C@@H](CC(N)=O)C(=O)N[C@H](C(=O)N[C@@H](Cc1ccc(O)cc1)C(N)=O)[C@@H](C)O)C(C)C)[C@@H](C)O [IAPP, islet amyloid polypeptide]
Assemblies observed by TEM after 48 h incubation [1, 6]: prototypical fibrils | ThT fluorescence of incubated peptide, in words [1, 6]: increase of ThT and ANS fluorescence | Incubation time at which the random coil to β-sheet conformational transition is seen (far-UV CD) [1, 7]: 24 h | Cell viability (INS-1E cells [2]): less than 10% | Cytotoxicity compared with unmodified IAPP, in words (INS-1E cells [2]): concentration-dependent decrease of metabolic activity | Lag time of amyloid formation [3]: 3.9 ± 1.2 h | Maximum membrane leakage (calcein fluorescence, % of that with Triton X-100) [4]: 17% | Incubation time at which membrane leakage starts ([4]; LUVs DOPC:DOPG 9:1, pH 7.4): 5 h | Cell death in Live/Dead assay, in words (INS-1E cells [5]): sharp increase in the number of red cells and a decrease of green cells

CC[C@H](C)[C@H](NC(=O)[C@H](C)NC(=O)CNC(=O)[C@H](Cc1ccccc1)NC(=O)[C@H](CC(N)=O)NC(=O)[C@H](CC(N)=O)NC(=O)[C@H](CO)NC(=O)[C@H](CO)NC(=O)[C@H](Cc1c[nH]cn1)NC(=O)[C@@H](NC(=O)[C@H](CC(C)C)NC(=O)[C@H](Cc1ccccc1)NC(=O)[C@H](C)NC(=O)[C@H](C)NC(=O)[C@H](CC(C)C)NC(=O)[C@H](CCCNC(=N)N)NC(=O)[C@H](CCC(N)=O)NC(=O)[C@@H](NC(=O)[C@H](C)NC(=O)[C@@H]1CSSC[C@H](NC(=O)[C@@H](N)CCCCN)C(=O)N[C@@H](CC(N)=O)C(=O)N[C@@H]([C@@H](C)O)C(=O)N[C@@H](C)C(=O)N[C@@H]([C@@H](C)O)C(=O)N1)[C@@H](C)O)C(C)C)C(=O)N[C@@H](CC(C)C)C(=O)N[C@@H](CO)C(=O)N[C@@H](CO)C(=O)N[C@H](C(=O)N[C@@H](CC(N)=O)C(=O)N[C@H](C(=O)NCC(=O)N[C@@H](CO)C(=O)N[C@@H](CC(N)=O)C(=O)N[C@H](C(=O)N[C@@H](Cc1ccc(O)cc1)C(N)=O)[C@@H](C)O)C(C)C)[C@@H](C)O [N14A]
Assemblies observed by TEM after 48 h incubation [1, 6]: dense network of thin fibrils | ANS fluorescence of incubated peptide, in words ([1]; 20 mM Tris-HCl pH 7.4, quiescent, diluted to 25 μM with 25 μM ANS): high ANS signal | ThT fluorescence of incubated peptide, in words [1, 6]: low ThT fluorescence | Incubation time at which the random coil to β-sheet conformational transition is seen (far-UV CD) [1, 7]: 48 h | Secondary conformation / conformational transition over incubation (far-UV CD), in words ([1]; 20 mM Tris-HCl pH 7.4, room temperature, fully quiescent, up to 7 days): helical-like conformation with two minima at 206 and 222 nm between 2 and 24 h incubation | Assemblies observed by AFM after 24 h incubation ([1]; 20 mM Tris-HCl pH 7.4, room temperature, no agitation, 24 h): only poorly defined fibrils | Cell viability (INS-1E cells [2]): 50% | Cytotoxicity compared with unmodified IAPP, in words (INS-1E cells [2]): reduced IAPP toxicity | Maximum membrane leakage (calcein fluorescence, % of that with Triton X-100) [4]: 50% | Cell death in Live/Dead assay, in words (INS-1E cells [5]): decreased toxicity compared to unmodified IAPP

F15A: full-length IAPP with Phe15 replaced by alanine (KCNTATCATQRLANALVHSSNNFGAILSSTNVGSNTY; disulfide 2-7; ends not checked; UniProt P10997 34-70, looked up, variant F15A)
Assemblies observed by TEM after 48 h incubation [1, 6]: no fibrillar aggregates could be observed | Overall effect of the substitution on amyloid formation, in words ([1]; 20 mM Tris-HCl pH 7.4, quiescent, CD, ThT, ANS, TEM, compared with unmodified IAPP): delayed the appearance of ThT and ANS-positive signals, and β-sheet-rich assemblies | Assemblies observed by AFM after 96 h incubation ([1]; 20 mM Tris-HCl pH 7.4, room temperature, no agitation, 96 h): only small aggregates | Assemblies observed by TEM after 168 h (7 days) incubation ([1]; 20 mM Tris-HCl pH 7.4, room temperature, no agitation, 168 h): amyloid fibrils could be observed | Cytotoxicity compared with unmodified IAPP, in words (INS-1E cells [2]): reduced IAPP toxicity | Increase of ThT fluorescence signal ([3]; 12.5 μM peptide): no increase of ThT fluorescence signal could be detected | Lag time of amyloid formation [3]: 14.2 ± 2.2 h | Maximum membrane leakage (calcein fluorescence, % of that with Triton X-100) [4]: 55% | Cell death in Live/Dead assay, in words (INS-1E cells [5]): decreased toxicity compared to unmodified IAPP
